The values that follow come from patent US6884799B2, “Non-cross-linking pyrrolo[2,1-c][1,4]benzodiazepines and process thereof” (Council of Scientific and Industrial Research, priority 2003, dated 2005).

What all share (type): cell-based
Data set [1] deals with leukemia cancer cell lines. Description: NCI in vitro cytotoxicity, SRB assay, leukemia panel. Conditions: Homo sapiens, read-out: Log LC50 (concentration in mol/L causing 50% lethality) (converted). On the procedure:
(§1) Biological Activity. In vitro biological activity studies were carried out at National Cancer Institute (USA).
(§2) Cytotoxicity. Compounds Va and Vc were evaluated in vitro against sixty human tumour cells derived from nine cancer types (leukemia, non-small-cell lung, colon, CNS, melanoma, ovarian, prostate, and breast cancer). For each compound, dose response curves for each cell line were measured at a minimum of five concentrations at 10 fold dilutions. A protocol of 48 h continuous drug exposure was used, and a sulforhodamine B (SRB) protein assay was used to estimate cell viability or growth. The concentration causing 50% cell growth inhibition (GI50), total cell growth inhibition (TGI 0% growth) and 50% cell death (LC50, −50% growth) compared with the control was calculated.
(§3) Each cancer type represents the average of six to eight different cancer cell lines.

In data set [2] the test system is ovarian cancer cell lines. In words: NCI in vitro cytotoxicity, SRB assay, ovarian panel. Conditions: Homo sapiens, read-out: Log LC50 (concentration in mol/L causing 50% lethality) (converted). The protocol:
as §1, §2, §3
Background: Sulforhodamine B stains cellular protein and so reports cell mass.

For the next data set, the system named is CNS cancer cell lines. Description: NCI in vitro cytotoxicity, SRB assay, CNS panel. Conditions: Homo sapiens, read-out: Log LC50 (concentration in mol/L causing 50% lethality) (converted). The protocol: as §1, §2, §3
Data set [3] deals with melanoma cancer cell lines. Description: NCI in vitro cytotoxicity, SRB assay, melanoma panel. Conditions: Homo sapiens, read-out: Log LC50 (concentration in mol/L causing 50% lethality) (converted). The protocol:
as §1, §2, §3

A further data set has as its system renal cancer cell lines. Description: NCI in vitro cytotoxicity, SRB assay, renal panel. Conditions: Homo sapiens, read-out: Log LC50 (concentration in mol/L causing 50% lethality) (converted). The protocol: as §1, §2, §3
Data set [4] deals with prostate cancer cell lines. Description: NCI in vitro cytotoxicity, SRB assay, prostate panel. To be noted: Homo sapiens, read-out: Log LC50 (concentration in mol/L causing 50% lethality) (converted). On the procedure: as §1, §2, §3
Data set [5] concerns non-small-cell lung cancer cell lines. Description: NCI in vitro cytotoxicity, SRB assay, non-small-cell lung panel. Conditions: Homo sapiens, read-out: Log LC50 (concentration in mol/L causing 50% lethality) (converted). On the procedure:
as §1, §2, §3

Data set [6] relates to sixty human tumour cells derived from nine cancer types. In words: cells. To be noted: for GI50 / CC50: Homo sapiens, 48 h; for GI50: read-out: Log10 GI50 mean graph midpoint (MG_MID) (converted); for CC50: read-out: Log10 LC50 mean graph midpoint (MG_MID) (converted); for Log10 TGI mean graph midpoint (MG_MID): total cell growth inhibition (0% growth), 48 h continuous drug exposure, SRB. On the procedure:
as §1, §2

In another data set the test system is Breast cancer cell lines. Description: NCI in vitro cytotoxicity, SRB assay, breast panel. To be noted: Homo sapiens, read-out: Log LC50 (concentration in mol/L causing 50% lethality) (converted). The protocol: as §1, §2, §3
The subject of a further data set is colon cancer cell lines. In words: NCI in vitro cytotoxicity, SRB assay, colon panel. To be noted: Homo sapiens, read-out: Log LC50 (concentration in mol/L causing 50% lethality) (converted). The protocol:
as §1, §2, §3

In general, GI50 refers to the concentration giving 50% growth inhibition. As for `COc1cc2c(cc1OCCCOc1cc3c(cc1OC)C(=O)N1CCC[C@H]1CN3)N=C[C@@H]1CCCN1C2=O` [Compound Va, 7-Methoxy-8-{3-[7-methoxy-(11aS)-1,2,3,10,11,11a-hexahydro-5H-pyrrolo[2,1-c][1,4]benzodiazepine-5-one-8-yloxy]propoxy}-(11aS)-1,2,3,11a-tetrahydro-5H-pyrrolo[2,1-c][1,4]benzodiazepine-5-one], the CC50 in [1] was 83.2 µM; in [2], 70.8 µM; in the data set on CNS cancer cell lines, 32.4 µM; in data set [3], 3.55 µM; in the data set with renal cancer cell lines, 63.1 µM; in data set [4], 83.2 µM. Further, the CC50 in data set [5] was 38.9 µM; in data set [6], 33.1 µM; with Breast cancer cell lines, 43.7 µM; with colon cancer cell lines it was 25.7 µM. The “cytotoxic / anticancer activity in words” value in [6] was “slightly higher activity”. In addition, in [6], the GI50 was 0.158 µM. Also, in data set [6], the “Log10 TGI mean graph midpoint (MG_MID)” value is given as −5.73.
As to `COc1cc2c(cc1OCCCCCOc1cc3c(cc1OC)C(=O)N1CCC[C@H]1CN3)N=C[C@@H]1CCCN1C2=O` [Compound Vc, 7-Methoxy-8-{5-[7-methoxy-(11aS)-1,2,3,10,11,11a-hexahydro-5H-pyrrolo[2,1-c][1,4]benzodiazepine-5-one-8-yloxy]pentyloxy}-(11aS)-1,2,3,11a-tetrahydro-5H-pyrrolo[2,1-c][1,4]benzodiazepine-5-one], the CC50 is 34.7 µM in data set [1]; 97.7 µM in data set [2]; 81.3 µM in the data set with CNS cancer cell lines; 38 µM in [3]; 95.5 µM with renal cancer cell lines; no less than 100 µM in data set [4]. Besides, the CC50 was 72.4 µM in data set [5], 70.8 µM in [6], 89.1 µM with Breast cancer cell lines and 91.2 µM in the data set on colon cancer cell lines. In addition, in [6], the “cytotoxic / anticancer activity in words” value is “interesting profile of activity and selectivity for various cell lines”. Besides, the GI50 in [6] was 5.13 µM. The “Log10 TGI mean graph midpoint (MG_MID)” value in [6] is −4.55.
